This passage reports IC50 and Kp results from US20120238557A1, “AMINOTHIAZINE OR AMINOOXAZINE DERIVATIVE HAVING AMINO LINKER” (SHIONOGI & CO., LTD., priority 2009, published 2012).

The target of one series is T1, Recombinant human BACE1 (Homo sapiens, UniProt P56817).
T1 construct: purchased R&D Systems
As to the kind of experiment: Assay of BACE1 inhibiting activity. The class given is biochemical. To be noted: 50% inhibitory concentration against enzymatic activity of recombinant human BACE1; Table 2.

The test system of series [1] is Neuroblastoma SH-SY5Y cells (SH/APPwt) with human wild-type β-APP excessively expressed. Nature of the series: Measurement of β-amyloid (Aβ) production inhibitory effect in cell. The class given is cell-based. To be noted: amount needed to inhibit Aβ production by 50%, SH/APPwt cells, 24 hours, Table 3, read-out: IC50. As to the method:
Neuroblastoma SH-SY5Y cells (SH/APPwt) with human wild-type β-APP excessively expressed therein were prepared at 8×10^5 cells/mL, and 150 μl portions thereof were inoculated into each well of a 96-well culture plate (Falcon). The cells were cultured for 2 hours at 37° C. in a 5% gaseous carbon dioxide incubator. Then, a solution which had been preliminarily prepared by adding and suspending the test compound (DMSO (dimethyl sulfoxide) solution) so as to be 2 μl/50 μl medium was added to the cell sap. Namely, the final DMSO concentration was 1%, and the amount of the cell culture was 200 μl. After the incubation was performed for 24 hours from the addition of the test compound, 100 μl of the culture supernatant was collected from each fraction. The amount of the Aβ in each fraction was measured.
The Aβ amount was measured as follows. 10 μl of a homogeneous time resolved fluorescence (HTRF) measurement reagent (Amyloid β 1-40 peptide; IBA Molecular Holding, S. A.) and 10 μl of the culture supernatant were put into a 384-well half area microplate (black microplate, Costar) and mixed with each other, and then left standing overnight at 4° C. while the light was shielded. Then, the fluorescence intensity (excitation wavelength: 337 nm, measurement wavelength: 620 nm and 665 nm) was measured with a Wallac 1420 multilabel counter (Perkin Elmer life sciences).

The nature of series [2]: Brain distribution studies. It counts as in vivo. The following applies: brain/plasma; rat, intravenous 0.5 mg/mL/kg, 30 minutes later; read-out: brain Kp value (area ratio brain/plasma). As to the method: Intravenous administration is carried out to a rat by 0.5 mg/mL/kg dosage of the compound. […] Then, the brain was extracted and 20-25% of homogenate thereof was prepared with distilled water. On the other hand, the obtained blood is used as plasma after centrifuging. Then, to the brain sample was added the control plasma at 1:1. To the plasma samples was added the control brains at 1:1. Each sample was measured using LC/MS/MS. The obtained area ratio (a brain/plasma) was used for the brain Kp value.

T1 sequence (P56817 46-501): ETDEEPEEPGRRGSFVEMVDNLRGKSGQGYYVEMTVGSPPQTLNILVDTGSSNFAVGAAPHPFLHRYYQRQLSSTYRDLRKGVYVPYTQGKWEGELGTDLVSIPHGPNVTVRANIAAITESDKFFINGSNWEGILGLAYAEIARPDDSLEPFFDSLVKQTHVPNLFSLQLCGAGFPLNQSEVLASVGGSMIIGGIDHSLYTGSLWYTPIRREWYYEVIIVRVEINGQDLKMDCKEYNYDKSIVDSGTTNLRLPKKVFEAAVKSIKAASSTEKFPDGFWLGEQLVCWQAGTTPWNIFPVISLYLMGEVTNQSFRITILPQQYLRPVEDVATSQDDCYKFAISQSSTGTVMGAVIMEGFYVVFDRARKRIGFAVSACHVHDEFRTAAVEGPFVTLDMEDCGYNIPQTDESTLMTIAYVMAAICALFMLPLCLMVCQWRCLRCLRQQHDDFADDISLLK

Regarding `C[C@@]1(c2cc(Nc3ncccc3C#N)ccc2F)CCSC(N)=N1` [Compound I-11], the IC50 was determined as 100 nM on Recombinant human BACE1 and 9 nM in series [1]. The Kp at 0.5 h in series [2] was found to be 2.2.

Usually IC50 stands for the point on the concentration scale where inhibition reaches its midpoint.
